Source: PMC5862616 (Oncotarget, 2018)
“And” between values parts separate entries of the source, which are not always exact repeats. Equal values may be shown once. Read-outs that look alike come from different tables or passages of the source.

Experiments:
[1] = system: p-ERK (MAPK 42/44) in KM-12 cells; experiment: Western blot of phosphorylated MAPK 42/44 (ERK) in KM-12 cells; assay type: cell-based
Experimental: (§1) 20 μg NTRK1 fusion confirmation
(§2) T20 (ThermoScientific, Rockford, IL) for 30 minutes. MiniPrep cat# R2051 following manufacturer ’s protocol. […]
(§3) (1:2000) (Sigma-Aldrich), HRP-conjugated mouse or primers. The primer sequences are TPM3_Ex3B_F5:
(§4) Chalfont, UK). All western blots were developed using Ex12_R5: […]. PCR was […]

MO-91 xenograft tumors = system: MO-91 xenograft tumors; set-up: method as in PMID 23811600; conditions: 50 mg/kg once daily; cited from earlier work
[2] = biological target: T1, wild-type TPM3-NTRK1 in NIH-3T3 cells (Homo sapiens, UniProt P04629+P06753); experiment: Immunoblot of p-NTRK1 in NIH-3T3 cells, wild-type TPM3-NTRK1; assay type: cell-based; conditions: 0.2 μM and 0.5 μM, 4 hours
T1 construct: expressed in transfected cells
T1 sequence (P06753+P04629 fused): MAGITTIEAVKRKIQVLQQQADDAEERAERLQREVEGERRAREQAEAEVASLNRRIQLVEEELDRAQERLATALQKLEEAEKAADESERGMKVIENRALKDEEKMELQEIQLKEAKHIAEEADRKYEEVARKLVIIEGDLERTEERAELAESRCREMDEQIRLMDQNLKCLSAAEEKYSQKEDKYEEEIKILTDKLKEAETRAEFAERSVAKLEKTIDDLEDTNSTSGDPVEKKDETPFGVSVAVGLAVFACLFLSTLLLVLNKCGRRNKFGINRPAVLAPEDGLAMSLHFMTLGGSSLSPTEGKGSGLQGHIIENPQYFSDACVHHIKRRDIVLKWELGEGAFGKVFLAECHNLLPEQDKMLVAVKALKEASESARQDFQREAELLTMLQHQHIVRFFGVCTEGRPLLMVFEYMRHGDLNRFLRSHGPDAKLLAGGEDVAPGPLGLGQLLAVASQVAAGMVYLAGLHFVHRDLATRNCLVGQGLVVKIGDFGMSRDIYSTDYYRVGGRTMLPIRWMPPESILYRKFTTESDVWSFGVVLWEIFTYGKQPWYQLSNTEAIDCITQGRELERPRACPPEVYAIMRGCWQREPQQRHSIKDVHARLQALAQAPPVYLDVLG

[3] = biological target: T2, mutant G595R TPM3-NTRK1 in NIH-3T3 cells (Homo sapiens, UniProt P04629+P06753, G595R); experiment: Immunoblot of p-NTRK1 in NIH-3T3 cells, G595R TPM3-NTRK1; assay type: cell-based; conditions: 0.2 μM and 0.5 μM, 4 hours
T2 construct: expressed in transfected cells
T2 sequence (P04629 510-796 G595R limits assumed, one chain of several): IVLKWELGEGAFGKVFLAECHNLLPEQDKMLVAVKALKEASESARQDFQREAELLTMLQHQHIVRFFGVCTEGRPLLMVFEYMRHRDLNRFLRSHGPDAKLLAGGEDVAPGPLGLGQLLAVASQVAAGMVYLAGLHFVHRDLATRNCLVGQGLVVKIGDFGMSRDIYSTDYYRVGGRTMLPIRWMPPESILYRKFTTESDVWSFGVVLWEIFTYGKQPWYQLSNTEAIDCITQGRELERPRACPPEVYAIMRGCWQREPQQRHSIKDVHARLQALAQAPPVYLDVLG

MO-91 cells (ETV6-NTRK3) = conditions: read-out: IC50 proliferation of MO-91 cells; in vitro; cited from earlier work
[4] = system: p-eIF4E in NIH-3T3 cells expressing TPM3-NTRK1; experiment: Immunoblot of p-eIF4E in NIH-3T3 TPM3-NTRK1 cells; assay type: cell-based
Experimental: 350 μg/ml hygromycin selection for 14 days. Each stable CO). Percent Ki67+ area was calculated as the percentage
wild-type or mutated NTRK1. Control vector containing positive. […]
as §1
T20 (ThermoScientific, Rockford, IL) for 30 minutes. MiniPrep cat# R2051 following manufacturer ’s protocol.
A forward primer upstream of the
as §3, §4

[5] = system: KM-12 xenograft tumors (TPM3-NTRK1); experiment: KM-12 xenograft tumor model; assay type: in vivo, athymic nude mice
KM-12 cells [6] = experiment: KM-12 anchorage independent growth in alginate; assay type: cell-based; conditions: Homo sapiens, KM12, 72 h, read-out: IC50 KM-12 anchorage independent growth
[7] = system: EL1989 PDX tumors (TPM3-NTRK1); experiment: Colorectal carcinoma PDX model EL1989; conditions: mouse, in vivo
[8] = system: MKNK1/2 (p-eIF4E S209) in KM-12 cells; experiment: Western blot of p-eIF4E S209 in KM-12 cells; assay type: cell-based
Experimental: as §1, §2, §3, §4

KM-12 cells [9] = experiment: KM-12 anchorage dependent cell proliferation (CellTiter-Glo); assay type: cell-based; conditions: Homo sapiens, KM12, 72 h, read-out: IC50 KM-12 cell proliferation (anchorage dependent)

Row | SMILES | p-ERK inhibition (in words) [1] | Effect on MO-91 xenograft tumors (MO-91 xenograft tumors) | p-NTRK1 (Y490) signaling, wild-type TPM3-NTRK1, in words [2] | p-NTRK1, mutant G595R TPM3-NTRK1, in words [3] | IC50 (MO-91 cells (ETV6-NTRK3)) [µM] | p-eIF4E reduction, in words [4] | Animal weights, KM-12 xenograft study ([5]; merestinib 24 mg/kg once daily, crizotinib 25 mg/kg twice daily, measured twice weekly, relative to vehicle) | T/C, KM-12 xenograft ([5]; mouse, in vivo) [%] | IC50 (KM-12 cells [6]) [µM] | % Necrosis/Mucin, individual animal [7] | % Necrosis/Mucin, mean per group [7] [%] | T/C, EL1989 PDX [7] [%] | p-eIF4E reduction (MKNK1/2 inhibition, in words) [8] | IC50 (KM-12 cells [9]) [µM] | Concentration giving total inhibition of phosphorylation of MAPK 42/44 (ERK) ([1]; KM-12 cells, 2 hours, 3.9-1000 nM, western blot) [nM] | p-eIF4E reduction (MKNK1/2 inhibition, in words) ([8]; KM-12 cells, 2 hours, western blot, b12: 100, 500, 1000 nM)
1 | C[C@@H](Oc1cc(-c2cnn(C3CCNCC3)c2)cnc1N)c1c(Cl)ccc(F)c1Cl [Crizotinib, reference compound] | dose dependent inhibition | induced tumor regression | reduced | little effect | 0.01 | did not show reduction in p-eIF4E | no significant weight alteration | 39.5 | 0.276 | 80% (2×) and 20% and 95% and 30% and 10% | 50 | 13.5 | small reduction of p-eIF4E | 0.092 |  | 
2 | CN1CCN(c2ccc(C(=O)Nc3n[nH]c4ccc(Cc5cc(F)cc(F)c5)cc34)c(NC3CCOCC3)c2)CC1 [Entrectinib, reference compound] |  |  |  |  |  |  |  |  |  |  |  |  | small reduction of p-eIF4E |  |  | 
3 | O=C(Nc1cnn2ccc(N3CCC[C@@H]3c3cc(F)ccc3F)nc12)N1CC[C@H](O)C1 [Larotrectinib, reference compound] |  |  | reduced | partial p-NTRK1 inhibition |  |  |  |  |  |  |  |  |  |  | 15.6 | small reduction of p-eIF4E
